This is an account of results in patent US20110294734A1, “PHARMACEUTICAL COMPOSITIONS COMPRISING TGF-BETA 1 INHIBITOR PEPTIDES” (DIGNA BIOTECH, S.L., priority 2009, published 2011).

Like-named read-outs stand apart in the source and are kept apart here. No end group written: not given here.

This series in a line: Solubility study of P144. The format is physicochemical.

For “TSLDASIIWAMMQN [Formula P144, TSLDASIIWAMMQN]”, the Solubility result by setting is: (Dicloromethane (DCM)) “insoluble”; (Dimethyl sulfoxide (DMSO)) “very soluble”; (Dimethylformamide (DMF)) “insoluble”; (Ethanol) “insoluble”; (Gantrez ® S97 2-5%) “insoluble”; (Glycerol) “insoluble”. Besides, the Solubility result by setting is: (Hexane) “insoluble”; (Human albumin 20%, read-out: Solubility) 250 µg/mL; (Hydroxy-propyl-β-cyclodextrin 5%, read-out: Solubility) 250 µg/mL; (PEG 400) “insoluble”; (PLASDONE 5%) “insoluble”; (Pluronic F68 (1-10%)) “insoluble”. In addition, the Solubility entry is “insoluble” (Proplylene glycol); “insoluble” (Sodium deoxycholate 5%); “insoluble” (Tetrahydrofurane (THF)); 250 µg/mL (Urea 10%, read-out: Solubility); “insoluble” (distilled water).

As a reminder, the Solubility is the concentration that dissolves in the medium under given conditions.
